Patent US7790899B2, “Synthesis of N-(4-fluorobenzyl)-N-(1-methylpiperidin-4-yl)-N′-(4-(2-methylpropyloxy)phenylmethyl)carbamide and its tartrate salt and crystalline forms” (ACADIA Pharmaceuticals, Inc., priority 2004, dated 2010)
Where a name gives a salt, the structure may show the parent alone. Read-outs that look alike come from different tables or passages of the source.

What was measured:
[1] = Particle size distribution; assay type: physicochemical
[2] = Water absorption and behaviour on exposure to relative humidity; assay type: physicochemical
[3] = Solubility statements in the description; conditions: water
[4] = Stability test, thermal treatment (sealed ampoules, 100° C., HPLC purity); assay type: physicochemical; conditions: 1 week, listed as polymorph B
Protocol: (§1) HPLC: HPLC measurements were carried out with a HP LC1090M, Column Symmetry C18, 3.0·150 mm.
The compounds of Examples 3(b) (polymorph A), 25 (polymorph B), and 36 (polymorph C) were placed in sealed ampoules and exposed for 1 week to 100° C. […] The products where analyzed by HPLC and the purity was detected to indicate chemical stability via decomposition.

[5] = Stability of the crystal forms (general findings); assay type: physicochemical; conditions: ambient temperatures
[6] = Stability test, exposure to humidity (open containers, 60° C., 75% relative humidity); assay type: physicochemical; conditions: 1 week and 2 weeks
Protocol: as §1
The compounds of Examples 3(b) (polymorph A), 25 (polymorph B), and 36 (polymorph C) were placed in open containers and exposed 1 week and 2 weeks at 60° C. and 75% relative humidity. In polymorph A, a water content of 2.8% was detected and the HPLC purity was 80%.

[7] = Approximate solubility of the crystalline free base in solvents at room temperature; assay type: physicochemical

With CC(C)COc1ccc(CNC(=O)N(Cc2ccc(F)cc2)C2CCN(C)CC2)cc1 [Example 60, N-(4-fluorobenzyl)-N-(1-methylpiperidin-4-yl)-N′-(4-(2-methylpropyloxy)phenylmethyl)carbamide tartrate] the “diameter of about 10% of the particles” value [1] was no more than 9 μm, the “diameter of about 50% of the particles” value [1] was no more than 30 μm and the “diameter of about 90% of the particles” value [1] was no more than 55 μm.
With CC(C)COc1ccc(CNC(=O)N(Cc2ccc(F)cc2)C2CCN(C)CC2)cc1 [Form D, N-(4-fluorobenzyl)-N-(1-methylpiperidin-4-yl)-N′-(4-(2-methylpropyloxy)phenylmethyl)carbamide hemi-tartrate] the “Stability in an open container” value ([2]; 53% relative humidity, open container) was “stable”.
With CC(C)COc1ccc(CNC(=O)N(Cc2ccc(F)cc2)C2CCN(C)CC2)cc1 [formula IV, N-(4-fluorobenzyl)-N-(1-methylpiperidin-4-yl)-N′-(4-(2-methylpropyloxy)phenylmethyl)carbamide hemi-tartrate] the “Solubility in water or aqueous systems (in words)” value [3] was “very good solubility”.
For CC(C)COc1ccc(CNC(=O)N(Cc2ccc(F)cc2)C2CCN(C)CC2)cc1.CC(C)COc1ccc(CNC(=O)N(Cc2ccc(F)cc2)C2CCN(C)CC2)cc1.O=C(O)C(O)C(O)C(=O)O [Form B, N-(4-fluorobenzyl)-N-(1-methylpiperidin-4-yl)-N′-(4-(2-methylpropyloxy)phenylmethyl)carbamide hemi-tartrate], the “Water uptake when exposed to high humidity” value ([2]; above 80% relative humidity) was “considerable water uptake”, the “Stability under ambient water partial pressures” value ([2]; relative humidities between 20% and 75%) was “sufficient stability” and the “HPLC purity after thermal treatment” value [4] was 28.3%. For the same molecule, the “Stability at ambient temperatures” value [5] was “stable”, the “Change of crystal form after exposure to humidity” value [6] was “transformed to polymorph C” and the “HPLC purity after exposure to humidity” value ([6]; listed as polymorph B) was 94.6%. For the same molecule, the “water content after exposure to humidity” value ([6]; listed as polymorph B) was 1.9%.
In the case of CC(C)COc1ccc(CNC(=O)N(Cc2ccc(F)cc2)C2CCN(C)CC2)cc1 [crystalline free base of formula I, N-(4-fluorobenzyl)-N-(1-methylpiperidin-4-yl)-N′-(4-(2-methylpropyloxy)phenylmethyl)carbamide], the solubility ([7]; acetonitrile) is reported as less than 50 mg/mL, the solubility ([7]; ethyl acetate) is reported as less than 30 mg/mL and the solubility ([7]; organic solvent or mixture, 1,4-dioxane, read-out: Solubility) is reported as 140 mg/mL. It also gave a solubility ([7]; organic solvent or mixture, acetone, read-out: Solubility) of 100 mg/mL, a solubility ([7]; organic solvent or mixture, dichloromethane, read-out: Solubility) greater than 500 mg/mL and a solubility ([7]; organic solvent or mixture, ethanol, read-out: Solubility) of 260 mg/mL. The solubility ([7]; organic solvent or mixture, isopropanol, read-out: Solubility) was 100 mg/mL, the solubility ([7]; organic solvent or mixture, methanol, read-out: Solubility) was 170 mg/mL and the solubility ([7]; organic solvent or mixture, tetrahydrofuran, read-out: Solubility) was greater than 250 mg/mL. It also gave a solubility ([7]; toluene) of less than 70 mg/mL and a solubility ([7]; water, read-out: Solubility) of less than 4 mg/mL.
For CC(C)COc1ccc(CNC(=O)N(Cc2ccc(F)cc2)C2CCN(C)CC2)cc1 [formula I, N-(4-fluorobenzyl)-N-(1-methylpiperidin-4-yl)-N′-(4-(2-methylpropyloxy)phenylmethyl)carbamide], the “Solubility in water or aqueous systems (in words)” value [3] was “low solubility”.
For CC(C)COc1ccc(CNC(=O)N(Cc2ccc(F)cc2)C2CCN(C)CC2)cc1 [Example 56, N-(4-fluorobenzyl)-N-(1-methylpiperidin-4-yl)-N′-(4-(2-methylpropyloxy)phenylmethyl)carbamide hemi-tartrate], the “diameter of about 10% of the particles” value [1] was no more than 5 μm, the “diameter of about 50% of the particles” value [1] was no more than 18 μm and the “diameter of about 90% of the particles” value [1] was no more than 35 μm.
